Laboratory results from US9029376B2, “Small molecule inhibitors for the treatment or prevention of dengue virus infection” (Siga Technologies, Inc., priority 2008, dated 2015).

System: Dengue-2 (Strain New Guinea C)
Assay: Dengue-2 viral yield assay in Vero cells
Assay type: cell-based
Conditions: Dengue virus, Vero, 48 h, read-out: Activity (anti-dengue 2 viral activity, EC50)
Method: Compounds that were active in the primary screen were tested for activity in viral yield assays. […] Vero cells in 12-well plates were infected with dengue-2 virus at a multiplicity of infection (MOI) of 0.1, treated with compound (or DMSO as a control), incubated at 37° C., harvested 48 hours post infection and titered on Vero cells as described above. The EC50 was calculated through ExcelFit. Those compounds with activity below 1 μM are indicated with “A”, those with activity between 1 and 10 μM are indicated with “B”, and those with activity between 10 and 25 μM with “C”.

SMILES | EC50 [µM]
NC(=O)C1(N2CCCCC2)CCN(C(=O)CSc2nc3ccccc3s2)CC1 [Compound 9, 1′-[2-(Benzothiazol-2-ylsulfanyl)-acetyl]-[1,4′]bipiperidinyl-4′-carboxylic acid amide] | 1 to 10
O=C(CSc1nc2ccccc2o1)N1CCN(c2ccccc2)CC1 [Compound 76, 2-(Benzooxazol-2-ylsulfanyl)-1-(4-phenyl-piperazin-1-yl)-ethanone] | > 25
CCC(=O)Nc1ccc2nc(SCC(=O)N3CCN(c4ccccc4)CC3)sc2c1 [Compound 54, N-{2-[2-oxo-2-(4-phenyl-piperazin-1-yl)-ethylsulfanyl]-benzothiazol-6-yl}-propionamide] | > 25
COc1ccccc1C(=O)Nc1ccc2nc(SCC(=O)N3CCOCC3)sc2c1 [Compound 28, 2-Methoxy-N-[2-(2-morpholin-4-yl-2-oxo-ethylsulfanyl)-benzothiazol-6-yl]-benzamide] | > 25
CC1CCN(C(=O)CSc2nc3ccccc3[nH]2)CC1 [Compound 44, 2-(1H-Benzoimidazol-2-ylsulfanyl)-1-(4-methyl-piperidin-1-yl)-ethanone] | > 25
O=C1CC(N2CCN(c3nc4ccccc4s3)CC2)C(=O)N1c1ccc(F)cc1 (stereo not shown) [Compound 60, 3-(4-Benzothiazol-2-yl-piperazin-1-yl)-1-(4-fluoro-phenyl)-pyrrolidine-2,5-dione] | > 25
Nc1ccc2nc(SCC(=O)N3CCCC3)sc2c1 [Compound 59, 2-(6-Amino-benzothiazol-2-ylsulfanyl)-1-pyrrolidin-1-yl-ethanone] | > 25
NC(=O)C1CCN(C(=O)CSc2nc3ccccc3s2)CC1 [Compound 66, 1-[2-(Benzothiazol-2-ylsulfanyl)-acetyl]-piperidine-4-carboxylic acid amide] | > 25
O=C(CSc1nc2ccccc2s1)N1CCCCC1 [Compound 41, 2-(Benzothiazol-2-ylsulfanyl)-1-piperidin-1-yl-ethanone] | > 25
NC(=O)C1(N2CCCCC2)CCN(C(=O)CSc2nc3ccccc3[nH]2)CC1 [Compound 70, 1′-[2-(1H-Benzoimidazol-2-ylsulfanyl)-acetyl]-[1,4′]bipiperidinyl-4′-carboxylic acid amide] | > 25
CCCC(=O)Nc1ccc2nc(SCC(=O)N3CCN(c4ccccc4)CC3)sc2c1 [Compound 75, N-{2-[2-oxo-2-(4-phenyl-piperazin-1-yl)-ethylsulfanyl]-benzothiazol-6-yl}-butyramide] | > 25

Same assay, conditions: Dengue virus; Dengue-2 strain New Guinea C, Vero cells, MOI 0.1, harvested 48 hours post infection, viral yield; read-out: Activity (anti-dengue 2 viral activity, EC50)

SMILES | EC50 [µM]
Cn1c(SCC(=O)N2CCc3ccccc3C2)nc2ccccc21 [Compound 81, 1-(3,4-Dihydro-1H-isoquinolin-2-yl)-2-(1-methyl-1H-benzoimidazol-2-ylsulfanyl)-ethanone] | > 25
O=C(Nc1ccc2nc(SCC(=O)N3CCOCC3)sc2c1)C1CCCCC1 [Compound 32, Cyclohexanecarboxylic acid [2-(2-morpholin-4-yl-2-oxo-ethylsulfanyl)-benzothiazol-6-yl]-amide] | > 25
CCN(CC)C(=O)CSc1nc2ccc(N3C(=O)c4ccccc4C3=O)cc2s1 [Compound 30, 2-[6-(1,3-Dioxo-1,3-dihydro-isoindol-2-yl)-benzothiazol-2-ylsulfanyl]-N,N-diethyl-acetamide] | > 25
Cc1ccc(C(=O)Nc2ccc3nc(SCC(=O)N4CCCCC4)sc3c2)cc1 [Compound 56, 4-Methyl-N-[2-(2-oxo-2-piperidin-1-yl-ethylsulfanyl)-benzothiazol-6-yl]-benzamide] | > 25
O=C(CSc1nc2ccccc2s1)N1CCN(C(c2ccccc2)c2ccccc2)CC1 [Compound 72, 1-(4-Benzhydryl-piperazin-1-yl)-2-(benzothiazol-2-ylsulfanyl)-ethanone] | > 25
COc1ccc(C(=O)Nc2ccc3nc(SCC(=O)N4CCOCC4)sc3c2)cc1OC [Compound 64, 3,4-Dimethoxy-N-[2-(2-morpholin-4-yl-2-oxo-ethylsulfanyl)-benzothiazol-6-yl]-benzamide] | > 25
Cn1c(SCC(=O)Nc2ccc3nc(SCC(=O)N4CCOCC4)sc3c2)nnc1-c1ccccc1 [Compound 37, 2-(4-Methyl-5-phenyl-4H-[1,2,4]triazol-3-ylsulfanyl)-N-[2-(2-morpholin-4-yl-2-oxo-ethylsulfanyl)-benzothiazol-6-yl]-acetamide] | > 25
Cn1c(Cc2cccc3ccccc23)nnc1SCC(=O)Nc1ccc2nc(SCC(=O)N3CCOCC3)sc2c1 [Compound 36, 2-(4-Methyl-5-naphthalen-1-ylmethyl-4H-[1,2,4]triazol-3-ylsulfanyl)-N-[2-(2-morpholin-4-yl-2-oxo-ethylsulfanyl)-benzothiazol-6-yl]-acetamide] | > 25
Cc1ccccc1C(=O)Nc1ccc2nc(SCC(=O)N3CCOCC3)sc2c1 [Compound 5, 2-Methyl-N-[2-(2-morpholin-4-yl-2-oxo-ethylsulfanyl)-benzothiazol-6-yl]-benzamide] | 1 to 10
O=C(CSc1nc2ccccc2[nH]1)N1CCCC1 [Compound 45, 2-(1H-Benzoimidazol-2-ylsulfanyl)-1-pyrrolidin-1-yl-ethanone] | > 25
Nc1ccc2nc(SCC(=O)N3CCN(Cc4ccccc4)CC3)sc2c1 [Compound 10, 2-(6-Amino-benzothiazol-2-ylsulfanyl)-1-(4-benzyl-piperazin-1-yl)-ethanone] | 1 to 10
CCOc1ccc2nc(SCC(=O)N3CCN(c4ccccc4)CC3)sc2c1 [Compound 14, 2-(6-Ethoxy-benzothiazol-2-ylsulfanyl)-1-(4-phenyl-piperazin-1-yl)-ethanone] | 10 to 25
CCN(CC)C(=O)CSc1nc2cc(C)ccc2[nH]1 [Compound 62, N,N-Diethyl-2-(5-methyl-1H-benzoimidazol-2-ylsulfanyl)-acetamide] | > 25
Nc1ccc2nc(SCC(=O)N3CCN(c4ccc(Cl)cc4)CC3)sc2c1 [Compound 77, 2-(6-Amino-benzothiazol-2-ylsulfanyl)-1-[4-(4-chloro-phenyl)-piperazin-1-yl]-ethanone] | > 25
O=C(CSc1nc2ccc(/N=C/c3c4ccccc4cc4ccccc34)cc2s1)N1CCOCC1 [Compound 19, 2-(6-{[1-Anthracen-9-yl-meth-(E)-ylidene]-amino}-benzothiazol-2-ylsulfanyl)-1-morpholin-4-yl-ethanone] | > 25
O=C(CSc1nc2ccccc2[nH]1)N1CCc2ccccc2C1 [Compound 61, 2-(1H-Benzoimidazol-2-ylsulfanyl)-1-(3,4-dihydro-1H-isoquinolin-2-yl)-ethanone] | > 25
CCOc1ccc2nc(SCC(=O)N3CCN(c4nc5ccccc5s4)CC3)sc2c1 [Compound 39, 1-(4-Benzothiazol-2-yl-piperazin-1-yl)-2-(6-ethoxy-benzothiazol-2-ylsulfanyl)-ethanone] | > 25
O=C(Nc1ccc2nc(SCC(=O)N3CCOCC3)sc2c1)c1ccccc1F [Compound 27, 2-Fluoro-N-[2-(2-morpholin-4-yl-2-oxo-ethylsulfanyl)-benzothiazol-6-yl]-benzamide] | > 25
O=C(Cc1cccc2ccccc12)Nc1ccc2nc(SCC(=O)N3CCOCC3)sc2c1 [Compound 38, N-[2-(2-Morpholin-4-yl-2-oxo-ethylsulfanyl)-benzothiazol-6-yl]-2-naphthalen-1-yl-acetamide] | > 25
Nc1ccc2nc(SCC(=O)N3CCN(c4nc5ccccc5s4)CC3)sc2c1 [Compound 40, 2-(6-Amino-benzothiazol-2-ylsulfanyl)-1-(4-benzothiazol-2-yl-piperazin-1-yl)-ethanone] | > 25
